From article PMC7462607 (eLife, 2020)
Values joined by “and” are separate entries in the source; they are usually repeats but may differ in a detail not shown here. Equal entries are not always repeated.

Legend:
A549 cells = assay: Cell viability assay (CellTiter-Glo), A549; format: cell-based, Homo sapiens; details: for CellTiter-Glo (ATP): A549, raw signal, Rep 1-3
Method: Seven hundred A549 cells or 1,000 HCT-116 cells in 50 µL of medium were plated per well in 384-well flat clear bottom white polystyrene TC-treated microplates (Corning, Corning, USA). After overnight attachment, cells were dosed with a serial dilution of HQ461 with a D300e digital dispenser (Tecan, Männedorf, Switzerland). Cell survival was measured 72 hr later using CellTiter-Glo luminescent cell viability assay kit (Promega, Madison, USA) following vendor instructions. Luminescence was recorded by EnVison multimode plate reader (PerkinElmer, Waltham, USA). IC50 was determined with GraphPad Prism using baseline correction (by normalizing to DMSO control), the asymmetric (five parameter) equation, and least squares fit.

[1] = test system: BRCA1, BRCA2, ATR, ERCC4 mRNA; assay: RT-qPCR of BRCA1, BRCA2, ATR and ERCC4 mRNAs; format: cell-based, Homo sapiens
Method: Total RNA was extracted from HQ461-treated A549 cells using TRNzol (Tiangen, Beijing, China). Reverse transcription of mRNA into cDNA was performed using the 5X All-In-One RT mastermix kit with AccuRT genomic DNA removal kit (Abm, Richmond, Canada), and qPCR was performed using TB Green Premix Ex Taq (Tli RNaseH Plus) (Takara, Otsu, Japan) with the CFX96 Real-Time PCR Detection System (Bio-Rad, Hercules, USA). GAPDH was used for normalization. Primer sequences are as follows: GAPDH-forward: 5’-[…]-3’; GAPDH-reverse: 5’-[…]-3’; BRCA1-forward: 5’-[…]-3’; BRCA1-reverse: 5’-[…]-3’; BRCA2-forward: 5’-[…]-3’; BRCA2-reverse: 5’-[…]-3’; ATR-forward: 5’-[…]-3’; ATR-reverse: 5’-[…]-3’; ERCC4-forward: 5’-[…]-3’; ERCC4- reverse: 5’-[…]-3’. Each experiment was performed with three technical replicates.

For Cc1cccc(Nc2nc(CC(=O)Nc3ncc(C)s3)cs2)n1 [HQ461, 2-(2-((6-methylpyridin-2-yl)amino)thiazol-4-yl)-N-(5-methylthiazol-2-yl)acetamide], the “CellTiter-Glo (ATP)” value (A549 cells; HQ461 1.6e-6 M) was 1.74E+06 and 1.39E+06 and 1.50E+06, the “CellTiter-Glo (ATP)” value (A549 cells; HQ461 3.12e-6 M) was 360450 and 439670 and 341920 and the “CellTiter-Glo (ATP)” value (A549 cells; HQ461 6.31e-6 M) was 173530 and 234990 and 251210. The “CellTiter-Glo (ATP)” value (A549 cells; HQ461 1.25e-5 M) was 146290 and 177880 and 172140, the “CellTiter-Glo (ATP)” value (A549 cells; HQ461 2.51e-5 M) was 65570 and 94080 and 92090 and the “CellTiter-Glo (ATP)” value (A549 cells; HQ461 2.00E-07 M) was 4.81E+06 and 4.79E+06 and 4.78E+06. The “CellTiter-Glo (ATP)” value (A549 cells; HQ461 3.96E-07 M) was 3.92E+06 and 3.86E+06 and 3.80E+06, the “CellTiter-Glo (ATP)” value (A549 cells; HQ461 4.80E-08 M) was 4.68E+06 and 4.34E+06 and 4.06E+06 and the “CellTiter-Glo (ATP)” value (A549 cells; HQ461 7.99E-07 M) was 3.98E+06 and 3.60E+06 and 3.16E+06. The “CellTiter-Glo (ATP)” value (A549 cells; HQ461 9.99E-08 M) was 3.91E+06 and 3.89E+06 and 3.96E+06, the IC50 (A549 cells; Homo sapiens, A549, 72 hr, CellTiter-Glo) was 1300 nM and the “inhibitory effect on the expression of DDR genes” value ([1]; A549 with CDK12 G731E or G731R mutation) was “abolished”. For the same molecule, the “mRNA levels of BRCA1, BRCA2, ATR and ERCC4” value ([1]; parental A549, 10 µM HQ461 for 16 hr) was “reductions in the mRNA levels of all four tested DDR genes”.
